# Test results from PMC6269910 (Molecules, 2013).
# Several values for one entry are separate records, joined by “and”; a condition that tells them apart may be missing. Identical values can stand only once.
# How the values were obtained:
# [1] = tested on: carrageenan-induced hind paw edema; test: Carrageenan-induced hind paw edema model; type: in vivo, mice
# Method: Locally bred balb/c mice of both sexes (30-35 g) were purchased from the animal breeding laboratories of Inonu University ([…], Turkey). The animals were fed a standard pellet diet and water ad libitum in a temperature-controlled room. On the day before the treatments, food was withdrawn, but the animals were allowed free access of water. The allocation of animals to different groups was randomized, and the experiments were carried out under blind conditions. Mice used in the present study were cared for in accordance with the directory of the Inonu University Animal Care Unit, which applies the guidelines of the National Institutes of Health on laboratory animal welfare. Procedures involving animals and their care were conducted in conformity with international laws and policies and animal studies accepted by Inonu University Ethical Council (2011/A17). Test samples, suspended in a mixture of distilled water and 0.5% sodium carboxymethyl cellulose (CMC), were given orally to the animals. The control group animals received the same experimental handling as those of the test groups, except that the drug treatment was replaced with appropriate volumes of the dosing vehicle. […] For the preliminary activity screening, each test group was composed of four mice. […] Because of the daily changing circumstance, we used another control group for each experiment. For the determination of the effects on carrageenan-induced paw oedema, the modified method of Kasahara et al. was employed. One hour after the oral administration of either test sample or dosing vehicle, each mouse was injected with a freshly prepared (0.5 mg/25 μL) suspension of carrageenan (Sigma, St. Louis, MO, USA) in physiological saline (154 mM NaCl). The subplantar tissue of the right hind paw was the injection site for all mice. The contralateral paw (left hind paw) was injected with 25 μL saline solution as the internal control. […] The difference in footpad thickness between the right and left foot indicated the degree of inflammation for each mouse. The change in paw volume, either increase or decrease, was calculated and compared with the control group (dosing vehicle) and analyzed using statistical methods.
# [2] = tested on: acetic acid-induced abdominal constriction; test: Acetic acid-induced writhing (Koster) test; type: in vivo, mice; conditions: 100 mg/kg oral
# Method: Test samples, suspended in a mixture of distilled water and 0.5% sodium carboxymethyl cellulose (CMC), were given orally to the animals. The control group animals received the same experimental handling as those of the test groups, except that the drug treatment was replaced with appropriate volumes of the dosing vehicle. […] One hour after oral administration of test sample, each mouse was injected intraperitoneally with 3% (w/v) acetic acid solution (0.1 mL/10 g, bw). Starting 5 min after the acetic acid injection, the number of muscular contractions on mice were counted for a period of 10 min. A significant reduction in the number of writhings by any treatment as compared to the number of writhings in control animals was considered a positive analgesic response. The analgesic activity was expressed as a percentage change from writhing controls. ASA was used as a reference compound and administered at 200 mg/kg.
# stomach = test: Gastric-ulcerogenic effect (ulcer score); type: in vivo, mice; conditions: 200 mg/kg p.o.; animals with lesions/animals
# [3] = tested on: lipid peroxidation in stomach; test: Lipid peroxidation in stomach (TBARS); type: in vivo, mice; conditions: 100 mg/kg, 8 h after analgesic test
# [4] = biological target: T1, HCV NS5B RNA dependent RNA polymerase (Hepatitis C virus genotype 1b, UniProt P26663); test: NS5B inhibition assay (primer dependent elongation, poly rA-U12); type: biochemical
# T1 construct: HCV NS5B RNA dependent RNA polymerase activity
# Method: The compounds 1a–e and 2a–e were reconstituted in DMSO as 50 mM stocks, and serially diluted in DMSO to obtain working stocks. Wedelolactone, a known inhibitor of HCV NS5B activity, was employed as a reference compound. Preliminary screening was carried out at 100 μM to identify a wider range of compounds.
# All synthesized compounds were evaluated for their effect on HCV NS5B RNA dependent RNA polymerase activity in primer dependent elongation assays as previously described. Activity of NS5B in the absence of the inhibitor but containing an equivalent amount of DMSO (control reaction) was set at 100% and that in the presence of the inhibitor was quantified relative to this control.
# T1 sequence (P26663 2420-3010): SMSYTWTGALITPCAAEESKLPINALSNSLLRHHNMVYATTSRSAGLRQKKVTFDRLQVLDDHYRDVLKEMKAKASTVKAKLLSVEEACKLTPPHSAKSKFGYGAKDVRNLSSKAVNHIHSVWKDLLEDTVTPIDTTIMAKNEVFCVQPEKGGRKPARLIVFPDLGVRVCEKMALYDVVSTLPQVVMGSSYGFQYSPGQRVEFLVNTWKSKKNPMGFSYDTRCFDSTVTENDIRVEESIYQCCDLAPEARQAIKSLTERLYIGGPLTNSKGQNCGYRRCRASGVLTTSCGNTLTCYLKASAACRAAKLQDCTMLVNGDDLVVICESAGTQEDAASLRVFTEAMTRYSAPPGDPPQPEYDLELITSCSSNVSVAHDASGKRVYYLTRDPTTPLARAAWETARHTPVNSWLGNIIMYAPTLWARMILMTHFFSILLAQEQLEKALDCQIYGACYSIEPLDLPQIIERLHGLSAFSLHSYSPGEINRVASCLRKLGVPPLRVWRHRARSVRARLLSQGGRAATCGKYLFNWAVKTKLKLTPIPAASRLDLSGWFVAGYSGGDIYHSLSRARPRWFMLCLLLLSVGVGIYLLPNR
smiles,measurement,setting,value
Cc1ccc(-c2cc(C(F)(F)F)nn2-c2ccc(S(=O)(=O)NC(=S)Nc3ccc([N+](=O)[O-])cc3)cc2)cc1 [Compound 1d],Swelling in thickness ± SEM,"[1]; 50 mg/kg per os, 90 min",70.0 ± 4.7 × 10^−2 mm
same,percent inhibitory activity,"[1]; 50 mg/kg per os, 90 min",2.7%
same,Swelling in thickness ± SEM,"[1]; 50 mg/kg per os, 180 min",77.0 ± 2.0 × 10^−2 mm
same,percent inhibitory activity,"[1]; 50 mg/kg per os, 180 min",16.3%
same,Swelling in thickness ± SEM,"[1]; 50 mg/kg per os, 270 min",112.0 ± 7.3 × 10^−2 mm
same,percent inhibitory activity,"[1]; 50 mg/kg per os, 270 min",7.4%
same,Swelling in thickness ± SEM,"[1]; 50 mg/kg per os, 360 min",125.0 ± 5.9 × 10^−2 mm
same,percent inhibitory activity,"[1]; 50 mg/kg per os, 360 min",3.1%
same,Swelling in thickness ± SEM,"[1]; 100 mg/kg per os, 90 min",95.9 ± 10.2 × 10^−2 mm
same,Swelling in thickness ± SEM,"[1]; 100 mg/kg per os, 270 min",110.7 ± 11.0 × 10^−2 mm
same,percent inhibitory activity,"[1]; 100 mg/kg per os, 270 min",8.5%
same,Swelling in thickness ± SEM,"[1]; 100 mg/kg per os, 360 min",88.7 ± 9.3 × 10^−2 mm
same,percent inhibitory activity,"[1]; 100 mg/kg per os, 360 min",31.2%
same,Swelling in thickness ± SEM,"[1]; 200 mg/kg per os, 90 min",45.9 ± 10.9 × 10^−2 mm
same,percent inhibitory activity,"[1]; 200 mg/kg per os, 90 min",36.2%
same,Swelling in thickness ± SEM,"[1]; 200 mg/kg per os, 180 min",65.3 ± 6.4 × 10^−2 mm
same,percent inhibitory activity,"[1]; 200 mg/kg per os, 180 min",29.0%
same,Swelling in thickness ± SEM,"[1]; 200 mg/kg per os, 270 min",98.2 ± 9.8 × 10^−2 mm
same,percent inhibitory activity,"[1]; 200 mg/kg per os, 270 min",19.0%
same,Swelling in thickness ± SEM,"[1]; 200 mg/kg per os, 360 min",91.0 ± 3.3 × 10^−2 mm
same,percent inhibitory activity,"[1]; 200 mg/kg per os, 360 min",29.5%
same,anti-inflammatory activity (in words),"[1]; all doses, all measurement intervals",moderate-to-good
same,Writhing test (% inh.),[2],19.5%
same,Writhing test (Mean ± SEM),[2]; writhings counted 10 min from 5 min after acetic acid,14.0 ± 3.0
same,Ulcer score,stomach,0/5
same,Lipid peroxidation,[3],429.2 ± 23.2 nmol TBARS/g wet weight
same,IC50,"[4]; dose-response, 8–12 concentrations",46 µM and 45.5 µM
same,inhibition at 100 µM,"[4]; read-out: Anti-NS5B Activity (% Inh., 100 µM)",68%
same,melting point,,245 to 248 °C
